Data as given in the NIST ThermoML archive (doi:10.1016/j.jct.2016.08.027).

Details: Liquid, Vibrating tube method

CCCCCCCCCCCC(=O)OCC [ethyl dodecanoate]
mass density [kg/m3]
Details | 283.15 K | 293.15 K | 303.15 K | 313.15 K | 323.15 K | 333.15 K | 343.15 K | 353.15 K | 363.15 K
100 kPa | 869.69 | 862.5 | 854.28 | 846.91 | 838.9 | 831.05 | 823.11 | 815.47 | 807.52
1000 kPa | 870.36 | 863 | 855.02 | 847.32 | 839.64 | 831.72 | 824.13 | 816.33 | 808.53
3000 kPa | 871.92 | 864.24 | 856.39 | 848.68 | 841.1 | 833.53 | 825.84 | 818.26 | 810.45
5000 kPa | 872.91 | 865.2 | 857.69 | 850.07 | 842.59 | 835.15 | 827.55 | 819.99 | 812.32
10000 kPa | 876.08 | 868.58 | 860.98 | 853.51 | 846.29 | 838.84 | 831.53 | 824.24 | 816.46
15000 kPa | 878.96 | 871.64 | 864.33 | 856.86 | 849.77 | 842.47 | 835.33 | 828.35 | 821.01
20000 kPa | 881.89 | 874.58 | 867.23 | 860.1 | 853.3 | 846.07 | 839.18 | 832.01 | 824.82
25000 kPa | 884.58 | 877.55 | 870.25 | 863.29 | 856.35 | 849.47 | 842.57 | 835.81 | 828.56
30000 kPa | 887.29 | 880.26 | 873.21 | 866.24 | 859.5 | 852.73 | 846.08 | 839.36 | 832.36
35000 kPa | 890.05 | 882.89 | 876.08 | 869.1 | 862.45 | 855.75 | 849.44 | 842.72 | 835.98
40000 kPa | 892.47 | 885.52 | 878.71 | 871.83 | 865.48 | 859.06 | 852.46 | 846.01 | 839.55
50000 kPa | 897.22 | 890.85 | 883.88 | 877.43 | 871.16 | 864.9 | 858.61 | 852.29 | 845.99
60000 kPa | 901.93 | 895.29 | 888.85 | 882.35 | 876.11 | 870.44 | 864.08 | 858.27 | 852.14

CCCCCCCCCCCC(=O)OC [methyl dodecanoate]
mass density [kg/m3]
Details | 283.15 K | 293.15 K | 303.15 K | 313.15 K | 323.15 K | 333.15 K | 343.15 K | 353.15 K | 363.15 K
100 kPa | 876.58 | 869.3 | 860.98 | 853.31 | 845.42 | 837.89 | 829.64 | 821.96 | 813.95
1000 kPa | 877.29 | 869.79 | 861.67 | 853.78 | 846.17 | 838.44 | 830.6 | 822.7 | 814.97
3000 kPa | 879.12 | 871.19 | 863.19 | 855.32 | 847.65 | 840.13 | 832.28 | 824.65 | 816.88
5000 kPa | 880.29 | 872.09 | 864.57 | 856.78 | 849.19 | 841.69 | 834.04 | 826.36 | 818.64
10000 kPa | 883.41 | 875.46 | 867.78 | 860.3 | 852.91 | 845.49 | 837.93 | 830.59 | 822.93
15000 kPa | 886.29 | 878.42 | 871.1 | 863.63 | 856.38 | 849.14 | 841.71 | 834.55 | 827.44
20000 kPa | 889.1 | 881.47 | 874.06 | 866.74 | 859.88 | 852.7 | 845.7 | 838.32 | 831.22
25000 kPa | 891.75 | 884.32 | 876.92 | 870.04 | 863.01 | 856.12 | 848.98 | 842.04 | 834.95
30000 kPa | 894.31 | 887.1 | 879.85 | 872.94 | 866.2 | 859.27 | 852.48 | 845.62 | 838.64
35000 kPa | 896.95 | 889.69 | 882.66 | 875.68 | 869.19 | 862.4 | 855.72 | 849.06 | 842.26
40000 kPa | 899.33 | 892.27 | 885.34 | 878.33 | 872.15 | 865.66 | 858.94 | 853.14 | 845.87
50000 kPa | 904.05 | 897.52 | 890.6 | 883.95 | 877.67 | 871.36 | 864.79 | 858.49 | 852.24
60000 kPa | 909.85 | 901.95 | 895.49 | 888.91 | 883.06 | 876.77 | 870.31 | 864.35 | 858.43
